In patent US9289388B2, “Methods and compositions for delivery of medicaments to the lungs” (Paka Pulmonary Pharmaceuticals, Inc., priority 2008, dated 2016):
pKi: −log10 of the molar value.

Key:
[1] = test system: mice with HNE induced emphysema; experiment: HNE induced emphysema, intratracheal delivery, lung histology and mean linear intercept after four weeks; format: in vivo
Protocol: A total of 42 animals were used in this study. Anesthesized mice received 0.1 ml of solution delivered by intratracheal instillation as described above in Example 4. Animals were divided into the following treatment groups: four animals received saline only; ten animals received HNE only; four animals received the Zeneca inhibitor (target 2) only; eight animals received HNE mixed with the Zeneca inhibitor (target 2); eight animals received Zeneca inhibitor linked to a lung surfactant peptide (target C) only; and eight animals received HNE mixed with Zeneca inhibitor linked to a lung surfactant peptide (target C). Animals receiving HNE were instilled with 40 micrograms HNE. Target 2 (Zeneca inhibitor) was administered in a 70-fold molar excess relative to HNE and Target C (Zeneca inhibitor linked to a lung surfactant peptide) was administered in a 100 fold molar excess relative to HNE as described in Example 4.
All animals were observed a four week period prior to sacrifice following IRB approved protocols and the lungs from each animal were removed for sectioning. The Hilar and central region was sectioned from the left lung and the caudal region was sectioned from the right lung of each animal. Lung sections were scored using blind-scoring by an expert as “E” for emphysema and “N” for no emphysema.
The distance between adjacent alveolar walls was also measured to quantitate the degree of lung destruction for each treatment group. Lung sections obtained from each animal were analyzed under a microscope (which is connected to a computer) and lines were drawn over the lung sections between adjacent alveolar walls. The distance along the lines was calculated to determine the average distance or mean linear intercept (MLI) between adjacent alveolar walls. An increase in the average distance between adjacent alveolar walls corresponds to an increase in lung destruction.

[2] = target: T1, HNE (Homo sapiens, UniProt P08246); experiment: kinetic studies of HNE inhibition; format: biochemical
T1 sequence (P08246 30-267): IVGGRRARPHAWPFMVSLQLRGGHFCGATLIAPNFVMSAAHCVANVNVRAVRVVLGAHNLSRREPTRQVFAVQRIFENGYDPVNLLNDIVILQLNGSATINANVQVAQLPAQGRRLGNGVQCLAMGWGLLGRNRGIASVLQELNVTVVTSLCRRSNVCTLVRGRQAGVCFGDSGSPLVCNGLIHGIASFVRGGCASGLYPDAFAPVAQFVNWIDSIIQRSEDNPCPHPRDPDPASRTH
Protocol: (§1) Target 2 (the Zeneca molecule) was given in a 70-fold molar excess relative to HNE. In the kinetic studies, Target 2 has 2 nM affinity. […] Accordingly, the Target C was given to the animals in a 100 fold molar excess relative to HNE in these studies.

[3] = test system: mice exposed to HNE; experiment: Bronchoalveolar lavage of the lungs following HNE exposure (lung blood cell level); format: in vivo
Protocol: A total of 14 animals were used in this study. Anesthetized mice received 0.1 ml of solution delivered by a blunt tip catheter to the opening of the trachea and the animals allowed to aspirate the solution into their lungs (this method is also referred to as intratracheal instillation). All animals were exposed to the treatment for 2 hours and re-anesthetized. Bronchoalveolar lavage of the lungs was performed as described below. […] Target 2 (a potent HNE inhibitor developed by Zeneca in the early 1990s) when given with the HNE, reduced the average blood level in the lungs by 34% to 0.035 grams. Target C (the Zeneca molecule covalently attached to the N-terminus of the first 25 residues of the human surfactant B peptide) when given with the HNE reduced the average blood level in the lungs by 87% to 0.007 grams.
A set of animals was used to determine the optimal concentration of HNE for the study. […] The amount of HNE was reduced to 40 micrograms to maintain a maximal detrimental but survivable effect. The animals exposed to 40 micrograms of HNE were able to survive long enough to perform the complete study. All animals remaining in the complete study were exposed to 40 micrograms of HNE.
as §1
Bronchio-Alveolar lavage (BAL) is performed by 1) anesthetizing the animals; 2) performing a tracheotomy on the animals and cutting open the chest and spreading the ribs to enable full lung expansion; 3) pressurizing 1 ml of PBS buffer solution into the lungs through the tracheotomy catheter; 4) sucking the solution out of the lungs; 5) centrifuging the recovered solution to separate the red blood cell fraction from the liquid fraction; and 6) weighing the red blood cell fraction.

[4] = HNE mixed with compound, four weeks, blind scoring
[5] = given with 40 micrograms HNE by intratracheal instillation, 2 hours, weight of BAL red blood cell fraction

Target C (FPIPLPYCWLCRALIKRIQAMIPKG)
MLI (mean linear intercept between adjacent alveolar walls) ([1]; HNE (40 micrograms) mixed with compound, intratracheal, four weeks, saline only 44.40, HNE only 51.45): 45.82 μm
effect on HNE induced emphysema by MLI ([1]; HNE + compound, compared to HNE only and saline only): strongly inhibited HNE induced emphysema
effect on HNE induced emphysema, lung histology sections [1, 4]: strongly inhibited HNE induced emphysema
lung histology sections compared with animals receiving saline only [1, 4]: could not be distinguished in blind scoring
loss of potency as compared to Target 2 [2]: loses approximately two orders of magnitude of potency
pKi ([2]; read-out: affinity for HNE): ~6.70
Lung Blood Cell Level, Group mean [3, 5]: 0.007 g
Lung Blood Cell Level, Mouse group 1 [3, 5]: 0 g
Lung Blood Cell Level, Mouse group 2 [3, 5]: 0.007 g
Lung Blood Cell Level, Mouse group 3 [3, 5]: 0.014 g
average blood level in the lungs ([3]; given with the HNE, 2 hours, HNE alone 0.053 grams): 0.007 grams
reduction of the average blood level in the lungs ([3]; given with the HNE, versus HNE alone): 87%
